Experimental data: patent US11208400B2, “Substituted 6-(1H-pyrazol-1-yl)pyrimidin-4-amine derivatives and uses thereof” (Bayer Aktiengesellschaft, priority 2016, dated 2021)
pIC50: −log10 of the molar value.

target: T1, human Npt2a (Homo sapiens, UniProt Q06495); experiment: Npt2a activity cell based assay, membrane potential dye, CHO T-REx hNpt2a cells; conditions: doxycycline-induced, depolarization by sodium phosphate influx, average or median values if tested more than once
T1 construct: expressed in transfected cells
T1 sequence (Q06495 1-639): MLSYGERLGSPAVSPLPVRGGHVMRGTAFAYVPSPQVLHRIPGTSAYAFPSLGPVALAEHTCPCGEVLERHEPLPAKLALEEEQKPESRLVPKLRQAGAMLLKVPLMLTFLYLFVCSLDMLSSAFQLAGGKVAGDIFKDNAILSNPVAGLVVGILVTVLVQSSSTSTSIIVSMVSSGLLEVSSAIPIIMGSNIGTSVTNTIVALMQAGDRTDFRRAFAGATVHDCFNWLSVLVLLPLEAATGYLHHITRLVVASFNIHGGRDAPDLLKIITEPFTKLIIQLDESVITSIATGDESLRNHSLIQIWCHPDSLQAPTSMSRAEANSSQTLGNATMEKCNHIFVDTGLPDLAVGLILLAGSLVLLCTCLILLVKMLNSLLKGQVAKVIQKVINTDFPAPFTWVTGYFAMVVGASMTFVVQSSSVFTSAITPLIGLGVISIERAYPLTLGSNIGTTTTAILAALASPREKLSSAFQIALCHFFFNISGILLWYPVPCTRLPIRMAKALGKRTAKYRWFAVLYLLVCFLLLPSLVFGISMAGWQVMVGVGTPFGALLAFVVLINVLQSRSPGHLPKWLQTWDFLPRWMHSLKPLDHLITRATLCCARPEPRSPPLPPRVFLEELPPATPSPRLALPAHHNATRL
How it was run: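 Cells were doxycycline-induced CHO T-REx hNpt2a, dye-loaded and pretreated 5 min at RT with 1 nM–50 μM compound in Na-free pH 7.4 buffer. IC50 was fit to the post/pre-trigger fluorescence ratio.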

Q: With `CCOC(=O)c1c(C)nn(-c2cc(Nc3c(C)c(-c4ccc(F)cc4)nn3C)ncn2)c1C` [Example 59, ethyl 1-(6-{[3-(4-fluorophenyl)-1,4-dimethyl-1H-pyrazol-5-yl]amino}pyrimidin-4-yl)-3,5-dimethyl-1H-pyrazole-4-carboxylate] as the compound, how does the pIC50 read?
A: The pIC50 was 7.92.

Q: With `COc1c(Nc2cc(-n3nc(C)cc3C)ncn2)nn(C)c1-c1ccc(C#N)cc1` [Example 443, 4-(3-{[6-(3,5-dimethyl-1H-pyrazol-1-yl)pyrimidin-4-yl]amino}-4-methoxy-1-methyl-1H-pyrazol-5-yl)benzonitrile] as the compound, how does the pIC50 read?
A: Its pIC50 is 7.96.

Q: How did the pIC50 turn out when `Cc1nn(-c2cc(Nc3c(C)c(-c4ccc(F)cc4)nn3CC3CC3)ncn2)c2c1C(=O)CC2` [Example 394, 1-(6-{[1-(cyclopropylmethyl)-3-(4-fluorophenyl)-4-methyl-1H-pyrazol-5-yl]amino}pyrimidin-4-yl)-3-methyl-5,6-dihydrocyclopenta[c]pyrazol-4(1H)-one] was run?
A: The pIC50 was 7.15.

Q: `Cc1nn(-c2cc(Nc3nn(C)c(-c4ccc(F)cc4)c3C3CC3)ncn2)c(C)c1Cl` [Example 42, 6-(4-chloro-3,5-dimethyl-1H-pyrazol-1-yl)-N-[4-cyclopropyl-5-(4-fluorophenyl)-1-methyl-1H-pyrazol-3-yl]pyrimidin-4-amine] was tested. Which pIC50 did it give?
A: The pIC50 was 8.12.

Q: How did the pIC50 turn out when `Cc1nn(-c2cc(Nc3c(C)c(-c4ccc(F)cc4)nn3CC3CC3)ncn2)c(C)c1O` [Example 429, 1-(6-{[1-(cyclopropylmethyl)-3-(4-fluorophenyl)-4-methyl-1H-pyrazol-5-yl]amino}pyrimidin-4-yl)-3,5-dimethyl-1H-pyrazol-4-ol] was run?
A: Its pIC50 is 7.77.

Q: With `CCc1c(Nc2cc(-n3nc(C)cc3CO)ncn2)nn(C)c1-c1ccc(F)cc1` [Example 104, [1-(6-{[4-ethyl-5-(4-fluorophenyl)-1-methyl-1H-pyrazol-3-yl]amino}pyrimidin-4-yl)-3-methyl-1H-pyrazol-5-yl]methanol] as the compound, how does the pIC50 read?
A: Its pIC50 is 6.82.

Q: `Cc1nn(-c2cc(Nc3c(C)c(-c4ccc(C#N)cc4)nn3C)ncn2)c(C(F)F)c1Cl` [Example 241, 4-[5-({6-[4-chloro-5-(difluoromethyl)-3-methyl-1H-pyrazol-1-yl]pyrimidin-4-yl}amino)-1,4-dimethyl-1H-pyrazol-3-yl]benzonitrile] was tested. Which pIC50 did it give?
A: Its pIC50 is 8.15.

Q: With `CCOc1ccc(-c2n[nH]c(Nc3cc(-n4nc(C)cc4C)ncn3)c2Cl)cc1` [Example 39, N-[4-chloro-3-(4-ethoxyphenyl)-1H-pyrazol-5-yl]-6-(3,5-dimethyl-1H-pyrazol-1-yl)pyrimidin-4-amine] as the compound, how does the pIC50 read?
A: Its pIC50 is 8.49.

Q: With `Cc1c(-c2ccc(C#N)cc2)nn(CC2CC2)c1Nc1cc(-n2cccn2)ncn1` [Example 246, 4-[1-(cyclopropylmethyl)-4-methyl-5-{[6-(1H-pyrazol-1-yl)pyrimidin-4-yl]amino}-1H-pyrazol-3-yl]benzonitrile] as the compound, how does the pIC50 read?
A: The pIC50 was 6.47.

Q: How did the pIC50 turn out when `COCCn1nc(-c2ccc(F)cc2)c(C)c1Nc1cc(-n2nc(C)cc2C)ncn1` [Example 525, 6-(3,5-dimethyl-1H-pyrazol-1-yl)-N-[3-(4-fluorophenyl)-1-(2-methoxyethyl)-4-methyl-1H-pyrazol-5-yl]pyrimidin-4-amine] was run?
A: Its pIC50 is 8.40.

Q: How did the pIC50 turn out when `Cc1cc(C(F)F)n(-c2cc(Nc3c(C)c(-c4ccc(OC(F)F)cc4)nn3CC3CC3)ncn2)n1` [Example 475, N-{1-(cyclopropylmethyl)-3-[4-(difluoromethoxy)phenyl]-4-methyl-1H-pyrazol-5-yl}-6-[5-(difluoromethyl)-3-methyl-1H-pyrazol-1-yl]pyrimidin-4-amine] was run?
A: The pIC50 was 6.67.

Q: How did the pIC50 turn out when `Cc1nn(-c2cc(Nc3c(C)c(-c4ccc(F)cc4)nn3C)ncn2)c(C(F)F)c1Cl` [Example 139, 6-[4-chloro-5-(difluoromethyl)-3-methyl-1H-pyrazol-1-yl]-N-[3-(4-fluorophenyl)-1,4-dimethyl-1H-pyrazol-5-yl]pyrimidin-4-amine] was run?
A: Its pIC50 is 6.89.

Q: With `Cc1nn(-c2cc(Nc3c(C)c(-c4ccc(F)cc4)nn3CC3CC3)ncn2)c(C)c1CO` [Example 282, [1-(6-{[1-(cyclopropylmethyl)-3-(4-fluorophenyl)-4-methyl-1H-pyrazol-5-yl]amino}pyrimidin-4-yl)-3,5-dimethyl-1H-pyrazol-4-yl]methanol] as the compound, how does the pIC50 read?
A: The pIC50 was 7.14.
